In patent publication US20200108089A1, “Gemcitabine Derivatives for Cancer Therapy” (Suzhou Sirnaomics Biopharmaceuticals Co., Ltd., priority 2017, published 2020):
Read-outs that look alike come from different tables or passages of the source. Bridge positions count the residues as written; N and C are the ends. Ends that are not written are not given here. I, II: the chains in the order shown.

Tests used:
Panc-1 cells [1] = assay: Effect of TGF-β1siRNA and mTORsiRNA on chemosensitivity of Panc-1 cells to low dose GEM-TCA; format: cell-based, human; conditions: 48 h; for maximum cell killing: siRNA 30 nM plus GEM-TCA up to 1 μM; for sensitization of Panc-1 cells to GEM-TCA: siRNA 30 nM
Description: FIG. 10. Effect of forward transfection with TGF-β1siRNA and mTORsiRNA chemosensitivity of Panc-1 cells to […] The next day, the medium was supplemented with 3.9 nM-1000 nM […] diluted in the same medium. At 48 h post chemical exposure cytotoxicity was assessed with Cell Titer-Glo Luminescent cell viability assay (Promega). Values derived from untreated cells (Blank) were set as 100%. All values represent the mean of ±S.D. of four replicates for each dilution. Paired sample two-tailed Student's t-test was used to determine significance.
. At 48 h post chemical exposure cytotoxicity was assessed with Cell Titer-Glo Luminescent cell viability assay (Promega). Values derived from untreated cells (Blank) were set as 100%. All values represent the mean of ±S.D. of four replicates for each dilution. Paired sample two-tailed Student's t-test was used to determine significance. The TGF-β1siRNA was previously identified and validated with multiple in vitro and in vivo assays: […]

mTOR [2] = assay: Selection of potent siRNA targeting mTOR, transfection and qRT-PCR, CT26; format: cell-based; conditions: mouse CT26 cells, qRT-PCR
Text: (§1) FIG. 3. Selection of potent siRNA targeting mTOR. (A) The lower panel illustrates selection of eight 25 mer siRNA duplexes with control siRNA were transfected into human MDA-MB-231 cells and mouse CT26 cells. 24 hr later, mRNA was collected and subject to Q-RT-PCR with the standard control gene target Rigs15.
(§2) For mTOR siRNA selection, we first use in silico screening selected 8 siRNA sequences for siRNA oligo synthesis. And then we transfected these siRNAs into human MDA-MB-231 cells and mouse CT26 cells. Twenty-four hours later, the total mRNA collected and subjected to qRT-PCR analysis with the standard control gene target Rigs15. From FIG. 3 we can see that the potent siRNA duplexes targeting mTOR (both human and mouse mRNAs) was selected.
(§3) We have identified potent mTOR specific siRNA through cell culture studies with human breast cancer cell line MDA-MB-231 and mouse CT26 cells, followed by qRT-PCR analyses: mTOR-siRNA: […]

Panc-1 cells [3] = assay: Effect of forward transfection with mTOR siRNA on chemosensitivity of Panc-1 cells to GEM-TCA; format: cell-based, human; conditions: mTOR-siRNA 10 nM and 20 nM; GEM-TCA 12.3 nM to 1 μM; 72 h; vs non-targeting siRNA
Description: FIG. 9. Effect of forward transfection with mTORsiRNA on chemosensitivity of Panc-1 cells to […] 5×10^3 Panc-1 cells were seeded on the wells of 96-well plate in 100 ul of DMEM/10% FBS. The next day cells were transfected with siRNA/Lipofectamine 2000 complexes accordingly to the manufactures' recommendations. In 5-6 h. medium was changed. The next day various concentrations of […] were applied to the transfected cells. At 72 h post chemical exposure cytotoxicity was assessed with Cell Titer-Glo Luminescent cell viability assay (Promega). Values derived from untreated cells (Blank) were set as 100%. All values represent the mean of ±S.D. of four replicates for each dilution. * different from cells transfected with control, not-targeting siRNA (p<0.05, Student's t test)
To realize the original hypothesis that the oncogenic gene target knockdown may induce a chemosensitivity of Panc-1 cell toward to […], the experiment was conducted with following procedures. 5×10^3 Panc-1 cells were seeded on the wells of 96-well plate in 100 ul of DMEM/10% FBS. The next day cells were transfected with siRNA/Lipofectamine 2000 complexes accordingly to the manufactures' recommendations. In 5-6 h. medium was changed. […] At 72 h post chemical exposure cytotoxicity was assessed with Cell Titer-Glo Luminescent cell viability assay (Promega). […]

mTOR [4] = assay: Selection of potent siRNA targeting mTOR, transfection and qRT-PCR, MDA-MB-231; format: cell-based; conditions: human MDA-MB-231 cells, qRT-PCR
Text: as §1, §2, §3

miR-132 = assay: Knockdown of miR-132 by antagomir-132 nanoparticles in mouse eyes; format: in vivo; conditions: QPCR
Description: FIG. 4. Knockdown of miR-132 by antagomir-132 nanoparticles in mouse eyes. […] One way ANOVA with Bonferroni's post hoc test was used to calculate the level of significance. P≤0.05 (*). Six corneas were collected and pooled for analysis by QPCR or WB. (B) Antagomir-132 and scrambled sequences were injected in HSV infected mice subconjunctively and the quantification of RasGAP mRNA from corneas isolated from different groups was carried out (n=6 mice/group). The level of significance was determined by student's t test (unpaired). ***P≤0.001.
One way ANOVA with Bonferroni's post hoc test was used to calculate the level of significance. P≤0.05 (*). Six corneas were collected and pooled for analysis by QPCR or WB. (B) Antagomir-132 and scrambled sequences were injected in HSV infected mice subconjunctively and the quantification of RasGAP mRNA from corneas isolated from different groups was carried out (n=6 mice/group). The level of significance was determined by student's t test (unpaired). ***P≤0.001 (FIG. 4).

Panc-1 cells [5] = assay: Dosage-dependent cytotoxicities of Gemcitabine and GEM-HKP conjugate, Cell Titer-Glo; format: cell-based, human; conditions: Panc-1, 72 hrs post treatment
Description: FIG. 21. Dosage-Dependent Cytotoxicities of Gemcitabine and GEM-HKP conjugate in the Panc-1 cell culture, at 72 hrs post treatments After exposures of the Panc-1 cells to Gemcitabine only, GEM-HKP conjugate, the cytotoxicities of each treatment was assessed with a “Cell Titer-Glo Luminescent cell viability assay” (Promega). Values derived from untreated cells (Blank) were set as 100%. All values represent the mean of ±S.D. of four replicates for each dilution. In this study, the HKP concentration at each point equals to its concentration in the Gem/HKP.

[6] = test system: LX-1, CALU-6, NCI-H460, NCI-H520 human lung xenografts; conditions: cited from earlier work
[7] = test system: Lewis lung murine xenograft; conditions: cited from earlier work
[8] = -NH2 of Gemcitabine; cited from earlier work
[9] = cited from earlier work

mTOR-siRNA: 25mer siRNA duplex specific to mTOR mRNA; sense 5′-r(GGUCUGGUGCCUGGUCUGAUGAUGU)-3′ in b114 (sense CACUACAAAGAACUGGAGUUCCAGA; antisense UCUGGAACUCCAGUUCUUUGUAGUG; further chemistry not given here)
maximum cell killing (Panc-1 cells [1]): 60% | sensitization of Panc-1 cells to GEM-TCA (Panc-1 cells [1]; GEM-TCA 3.9 nM): significantly sensitize | sensitization of Panc-1 cells to GEM-TCA (Panc-1 cells [1]; GEM-TCA 15.6 nM): sensitization effect was disappeared | mTOR silencing potency (mTOR [2]): potent | tumor cell killing by GEM-TCA after siRNA transfection (Panc-1 cells [3]): significantly improved | mTOR silencing potency (mTOR [4]): potent

Antagomir-132: modified RNA oligo targeting miR-132 (accguggcuuucgauuguuacu), packaged with HKP into nanoparticles (antisense ACCGUGGCUUUCGAUUGUUACU; chemically modified, pattern not given here, packaged with HKP into nanoparticles)
miR-132 knockdown in the corneas (miR-132): peak miR-132 knockdown

TGF-β1siRNA: siRNA duplex to TGF-β1; sense 5′-r(CCUCAAUUCAGUCUCUCAUCUGCAA)-3′ in b118 (sense CCCAAGGGCUACCAUGCCAACUUCU; antisense AGAAGUUGGCAUGGUAGCCCUUGGG; chemistry not given here)
maximum cell killing (Panc-1 cells [1]): 60% | sensitization of Panc-1 cells to GEM-TCA (Panc-1 cells [1]; GEM-TCA 3.9 nM): significantly sensitize | sensitization of Panc-1 cells to GEM-TCA (Panc-1 cells [1]; GEM-TCA 62.5 nM): sensitization effect was still significant

I: KHHHKHHHKHHHKHHHKKKK-NH2 / II: KHHHKHHHKHHHKHHHK / III: KHHHKHHHKHHHKHHHK / IV: KHHHKHHHKHHHKHHHK (amide I:18-IV:C, I:19-III:C, I:20-II:C) [HKP]
cytotoxicity (Panc-1 cells [5]): no cytotoxicity

Nc1ccn([C@@H]2O[C@H](CO)[C@@H](O)C2(F)F)c(=O)n1 [Gemcitabine, 2′,2′-difluorodeoxycytidine]
activity in combination with cisplatin ([6]; LX-1 and CALU-6 human lung xenografts): showed activity | activity in combination with cisplatin ([6]; NCI-H460 or NCI-H520 xenografts): minimal activity | interaction with cisplatin [7]: synergistic | pKa [8]: ~2.8 | activity with cisplatin in vitro [9]: dose-dependent synergistic activity
